Where “and” joins values, the source holds several entries; their conditions need not be identical. Identical values can stand only once.
Biological target: T1, CRTH2 receptor (hCRTH2) (Homo sapiens, UniProt Q9Y5Y4)
T1 construct: expressed in transfected cells; host or cells: HEK cells (HEK-hCRTH2 cell line), membranes
T1 sequence (Q9Y5Y4 1-395): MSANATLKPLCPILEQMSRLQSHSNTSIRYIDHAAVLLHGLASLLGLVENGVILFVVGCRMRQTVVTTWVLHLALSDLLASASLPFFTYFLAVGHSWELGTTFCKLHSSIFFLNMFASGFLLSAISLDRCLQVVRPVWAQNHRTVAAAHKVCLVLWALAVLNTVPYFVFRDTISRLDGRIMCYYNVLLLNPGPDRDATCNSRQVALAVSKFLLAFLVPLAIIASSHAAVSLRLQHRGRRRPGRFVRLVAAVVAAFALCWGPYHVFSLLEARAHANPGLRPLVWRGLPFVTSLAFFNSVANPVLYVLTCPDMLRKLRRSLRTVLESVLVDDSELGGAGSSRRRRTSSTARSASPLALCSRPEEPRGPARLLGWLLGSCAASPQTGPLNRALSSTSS
Test: Radioligand binding assay ([3H]PGD2 competition, membranes of HEK-hCRTH2 cell line)
Conditions: 3.0 nM [3H]PGD2, HEK-hCRTH2 membranes, 60 min, room temperature; read-out: Ki
Experimental: Competing ligands were diluted in dimethylsulfoxide (Me2SO) that was kept constant at 1% (v/v) of the final incubation volume. The reaction was initiated by the addition of 8-20 μg of membrane protein prepared from a HEK-hCRTH2 cell line. Total and non-specific binding were determined in the absence and the presence of […] PGD2, respectively. […] The reaction was routinely conducted for 60 min at room temperature and terminated by rapid filtration through prewetted (0.3% polyethyleneimine) 96-well printed filtermate (Wallac) using a Tomtec harvester. After washing with cold buffer, the filter was dried for 2 minutes in microwave, and Meltilex Scintillator sheet (Wallac) was melted on for 2 min.

Ki | SMILES
≤ 10 nM | C[C@@]1(Cc2ccccc2)CC(c2ccc3c(=O)n(-c4ccccc4)c(CCCCC(=O)O)nc3c2)=NO1 [Example 26M]
10 to 50 nM | C[C@@]1([C@@H](O)c2ccccc2)CC(c2ccc3c(=O)n(-c4ccccc4)c(CCCCC(=O)O)nc3c2)=NO1 [Example 26i]
≤ 10 nM | O=C(O)CCCCc1nc2cc(C3=NOC(c4nc5ccccc5o4)C3)ccc2c(=O)n1-c1ccc(F)cc1 (stereo not drawn) [Example 28, 5-(7-(5-(benzo[d]oxazol-2-yl)-4,5-dihydroisoxazol-3-yl)-3-(4-fluorophenyl)-4-oxo-3,4-dihydroquinazolin-2-yl)pentanoic acid]
≤ 10 nM | O=C(O)CCCCc1nc2cc(-c3cc(-c4nc5ccccc5o4)on3)ccc2c(=O)n1-c1ccc(F)cc1 [Example 29]
10 to 50 nM and 22.1 nM | O=C(O)CCCCc1nc2cc(-c3cc(-c4ccccc4)no3)ccc2c(=O)n1-c1ccc(F)cc1 [Example 32]
≤ 10 nM | O=C(O)CCCCc1nc2cc(-c3cc(-c4ccc5ccccc5n4)on3)ccc2c(=O)n1-c1ccc(F)cc1 [Example 33]
≤ 10 nM | O=C(O)CCCCc1nc2cc(-c3noc(Cc4ccc(F)cc4)n3)ccc2c(=O)n1-c1ccc(F)cc1 [Example 36, 5-(7-(5-(4-fluorobenzyl)-1,2,4-oxadiazol-3-yl)-3-(4-fluorophenyl)-4-oxo-3,4-dihydroquinazolin-2-yl)pentanoic acid]
≤ 10 nM | O=C(O)CCCCc1nc2cc(C3=NOC[C@@H](c4ccc(F)cc4)N3)ccc2c(=O)n1-c1ccc(F)cc1 [Example 37, (R)-5-(3-(4-fluorophenyl)-7-(5-(4-fluorophenyl)-5,6-dihydro-4H-1,2,4-oxadiazin-3-yl)-4-oxo-3,4-dihydroquinazolin-2-yl)pentanoic acid]
≤ 10 nM | O=C(O)CCCCc1nc2cc(C3=NOC[C@H](c4ccc(F)cc4)N3)ccc2c(=O)n1-c1ccc(F)cc1 [Example 37E]
10 to 50 nM | O=C(O)CCCCc1nc2cc(-c3cc(CSc4nc5cc(OC(F)F)ccc5[nH]4)on3)ccc2c(=O)n1-c1ccc(F)cc1 [Example 39, 5-(7-(5-((5-(difluoromethoxy)-1H-benzo[d]imidazol-2-ylthio)methyl)isoxazol-3-yl)-3-(4-fluorophenyl)-4-oxo-3,4-dihydroquinazolin-2-yl)pentanoic acid]
10 to 50 nM | O=C(O)CCCCc1nc2cc(-c3cc(CS(=O)(=O)c4nc5cc(OC(F)F)ccc5[nH]4)on3)ccc2c(=O)n1-c1ccc(F)cc1 [Example 39E, 5-(7-(5-((5-(difluoromethoxy)-1H-benzo[d]imidazol-2-ylsulfonyl)methyl)isoxazol-3-yl)-3-(4-fluorophenyl)-4-oxo-3,4-dihydroquinazolin-2-yl)pentanoic acid]
≤ 10 nM | O=C(O)CCCCc1nc2cc(-c3cc(CSc4ccc(F)cc4)on3)ccc2c(=O)n1-c1ccc(F)cc1 [Example 39F]
10 to 50 nM | O=C(O)CCCCc1nc2cc(-c3cc(CSc4ccccn4)on3)ccc2c(=O)n1-c1ccc(F)cc1 [Example 39G]
10 to 50 nM | COc1ccc2[nH]c(SCc3cc(-c4ccc5c(=O)n(-c6ccc(F)cc6)c(CCCCC(=O)O)nc5c4)no3)nc2c1 [Example 39H]
10 to 50 nM | O=C(O)CCCCc1nc2cc(-c3cc(CS(=O)(=O)c4ccccn4)on3)ccc2c(=O)n1-c1ccc(F)cc1 [Example 39I]
≤ 10 nM | COc1ccc2[nH]c(S(=O)(=O)Cc3cc(-c4ccc5c(=O)n(-c6ccc(F)cc6)c(CCCCC(=O)O)nc5c4)no3)nc2c1 [Example 39J]
≤ 10 nM | O=C(O)CCCCc1nc2cc(-c3cc(CSc4nc5ccccc5[nH]4)on3)ccc2c(=O)n1-c1ccc(F)cc1 [Example 39K]
≤ 10 nM | O=C(O)CCCCc1nc2cc(-c3cc(CS(=O)(=O)c4nc5ccccc5[nH]4)on3)ccc2c(=O)n1-c1ccc(F)cc1 [Example 39L]
10 to 50 nM | O=C(O)CCCCc1nc2cc(-c3cc(C[S+]([O-])c4nc5ccccc5[nH]4)on3)ccc2c(=O)n1-c1ccc(F)cc1 (stereo not drawn) [Example 40, 5-(7-(5-((1H-benzo[d]imidazol-2-ylsulfinyl)methyl)isoxazol-3-yl)-3-(4-fluorophenyl)-4-oxo-3,4-dihydroquinazolin-2-yl)pentanoic acid]
≤ 10 nM | CCC1(c2ccccc2)CC(c2ccc3c(=O)n(-c4ccc(F)cc4)c(CCCCC(=O)O)nc3c2)=NO1 (stereo not drawn) [Example 41]

Ki | SMILES
≤ 10 nM | CC[C@H](c1ccc(F)cc1)c1cc(-c2ccc3c(=O)n(-c4ccc(F)cc4)c(CCCCC(=O)O)nc3c2)no1 [Example 43, (R)-5-(3-(4-fluorophenyl)-7-(5-(1-(4-fluorophenyl)propyl)isoxazol-3-yl)-4-oxo-3,4-dihydroquinazolin-2-yl)pentanoic acid]
≤ 10 nM | CC[C@@H](c1ccc(F)cc1)c1cc(-c2ccc3c(=O)n(-c4ccc(F)cc4)c(CCCCC(=O)O)nc3c2)no1 [Example 43D]
10 to 50 nM and 32.6 nM | C[C@@H](OCc1ccc(F)cc1)c1cc(-c2ccc3c(=O)n(-c4ccc(F)cc4)c(CCCCC(=O)O)nc3c2)no1 [Example 44]
≤ 10 nM | O=C(O)CCCCc1nc2cc(-c3cc(Cc4ccccc4)on3)ccc2c(=O)n1-c1ccc(F)cc1 [Example 100]
≤ 10 nM | O=C(O)CCCCc1nc2cc(-c3cc([C@@H](O)c4ccccc4)on3)ccc2c(=O)n1-c1ccc(F)cc1 [Example 101]
≤ 10 nM | O=C(O)CCCCc1nc2cc(-c3cc([C@H](O)c4ccccc4)on3)ccc2c(=O)n1-c1ccc(F)cc1 [Example 102]
≤ 10 nM | Cc1ccccc1-c1cc(-c2ccc3c(=O)n(-c4ccc(F)cc4)c(CCCCC(=O)O)nc3c2)no1 [Example 103]
10 to 50 nM | O=C(O)CCCCc1nc2cc(-c3noc(-c4ccc(C(F)(F)F)cc4)n3)ccc2c(=O)n1-c1ccc(F)cc1 [Example 104]
≤ 10 nM | O=C(O)CCCCc1nc2cc(-c3cn(-c4ccc(F)cc4)nn3)ccc2c(=O)n1-c1ccc(F)cc1 [Example 105]
≤ 10 nM | O=C(O)CCCCc1nc2cc(-c3cc(CN4CCc5ccccc54)on3)ccc2c(=O)n1-c1ccc(F)cc1 [Example 106]
≤ 10 nM | O=C(O)CCCCc1nc2cc(-c3cc(Cn4ccccc4=O)on3)ccc2c(=O)n1-c1ccc(F)cc1 [Example 107]
≤ 10 nM | CC(CCCc1nc2cc(C3=NOC(C)(c4nc5ccccc5o4)C3)ccc2c(=O)n1-c1ccc(F)cc1)C(=O)O (stereo not drawn) [Example 108]
10 to 50 nM | CC(CCCc1nc2cc(C3=NOC(C)([C@H](O)c4ccccc4)C3)ccc2c(=O)n1-c1ccc(F)cc1)C(=O)O (stereo partly drawn) [Example 109]
10 to 50 nM | CC(CCCc1nc2cc(C3=NOC(C)([C@@H](O)c4ccccc4)C3)ccc2c(=O)n1-c1ccc(F)cc1)C(=O)O (stereo partly drawn) [Example 110]
≤ 10 nM | O=C(O)CCCCc1nc2cc(-c3cc(Cn4nnc5ccccc54)on3)ccc2c(=O)n1-c1ccc(F)cc1 [Example 111]
≤ 10 nM | N#CC1CC2(CC(c3ccc4c(=O)n(-c5ccc(F)cc5)c(CCCCC(=O)O)nc4c3)=NO2)C1 (stereo not drawn) [Example 112]
≤ 10 nM | CC1(c2ccc(C#N)cc2)CC(c2ccc3c(=O)n(-c4ccc(Cl)cc4)c(CCCCC(=O)O)nc3c2)=NO1 (stereo not drawn) [Example 113]
≤ 10 nM | CC1(c2ccc(C#N)cc2)CC(c2ccc3c(=O)n(-c4ccc(F)cc4)c(CCCCC(=O)O)nc3c2)=NO1 (stereo not drawn) [Example 114]
≤ 10 nM | CC1(c2nc3ccccc3o2)CC(c2ccc3c(=O)n(-c4ccc(Cl)cc4)c(CCCCC(=O)O)nc3c2)=NO1 (stereo not drawn) [Example 116]
